The values below come from patent publication US11155544B2, “Heterocycle comprising tyrosine kinase inhibitors” (Principia Biopharma Inc., priority 2015, dated 2021).

human recombinant BTK, sequence (Q06187 whole entry): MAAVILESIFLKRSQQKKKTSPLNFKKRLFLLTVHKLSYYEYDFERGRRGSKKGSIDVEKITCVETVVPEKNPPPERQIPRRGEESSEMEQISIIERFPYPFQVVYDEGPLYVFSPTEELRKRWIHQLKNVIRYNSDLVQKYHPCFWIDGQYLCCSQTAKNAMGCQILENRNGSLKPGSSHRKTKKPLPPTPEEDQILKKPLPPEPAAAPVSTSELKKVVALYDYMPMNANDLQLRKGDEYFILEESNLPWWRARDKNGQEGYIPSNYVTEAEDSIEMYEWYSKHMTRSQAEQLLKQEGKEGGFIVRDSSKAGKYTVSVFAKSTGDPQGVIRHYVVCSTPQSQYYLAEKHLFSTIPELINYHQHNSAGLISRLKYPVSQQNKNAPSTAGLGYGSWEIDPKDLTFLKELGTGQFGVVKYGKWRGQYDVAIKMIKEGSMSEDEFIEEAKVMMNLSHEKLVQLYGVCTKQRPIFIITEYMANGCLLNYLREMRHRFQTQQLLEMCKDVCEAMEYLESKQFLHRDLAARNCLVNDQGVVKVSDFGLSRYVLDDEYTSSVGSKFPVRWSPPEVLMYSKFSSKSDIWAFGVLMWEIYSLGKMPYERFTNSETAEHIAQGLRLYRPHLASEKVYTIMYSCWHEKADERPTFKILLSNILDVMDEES

This test deals with human recombinant BTK (Homo sapiens (Human), UniProt Q06187). As to the kind of experiment: BTK Enzymatic Activity Assay (Caliper-based kinase assay). The format is biochemical. The following applies: human recombinant BTK (0.5 nM), ATP (16 μM), peptide substrate (1 μM), room temperature for 3 h. The protocol:
A Caliper-based kinase assay (Caliper Life Sciences, Hopkinton, Mass.) was used to measure inhibition of BTK kinase activity of a compound of the present disclosure. Serial dilutions of test compounds were incubated with human recombinant BTK (0.5 nM), ATP (16 μM) and a phosphoacceptor peptide substrate FAM-GEEPLYWSFPAKKK-NH2 (1 μM) at room temperature for 3 h. The reaction was then terminated with EDTA, final concentration 20 mM and the phosphorylated reaction product was quantified on a Caliper Desktop Profiler (Caliper LabChip 3000). Percent inhibition was calculated for each compound dilution and the concentration that produced 50% inhibition was calculated. This value is presented as the IC50.
For `CC(C)(C=C(C#N)C(=O)N1CCC[C@@H](n2nc(-c3ccc(C(=O)Nc4ccccn4)cc3)c3c(N)nccc32)C1)N1CCN(C2COC2)CC1` [Compound 47, (R)-4-(4-amino-1-(1-(2-cyano-4-methyl-4-(4-(oxetan-3-yl)piperazin-1-yl)pent-2-enoyl)piperidin-3-yl)-1H-pyrazolo[4,3-c]pyridin-3-yl)-N-(pyridin-2-yl)benzamide], the concentration for half-maximal inhibition (IC50) – broadly, the concentration needed to halve the response being measured – is 4.1 nM.

For the compound `CN1CCN(C(C)(C)C=C(C#N)C(=O)N2CCC[C@H]2Cn2nc(-c3ccc(Oc4ccccc4)cc3F)c3c(N)nccc32)CC1=O` [Compound 32, (S)-2-(2-((4-amino-3-(2-fluoro-4-phenoxyphenyl)-1H-pyrazolo[4,3-c]pyridin-1-yl)methyl)pyrrolidine-1-carbonyl)-4-methyl-4-(4-methyl-3-oxopiperazin-1-yl)pent-2-enenitrile], the 50% inhibitory concentration (IC50) came out at 8.9 nM.

As to `CC(C)(C=C(C#N)C(=O)N1CCC[C@@H](c2nc(-c3ccc(Oc4ccccc4)cc3F)c3c(N)nccn23)C1)N1CCN(C2COC2)CC1` [Compound 2, (R)-2-(3-(8-amino-1-(2-fluoro-4-phenoxyphenyl)imidazo[1,5-a]pyrazin-3-yl)piperidine-1-carbonyl)-4-methyl-4-(4-(oxetan-3-yl)piperazin-1-yl)pent-2-enenitrile], the concentration for half-maximal inhibition (IC50) is 1.9 nM. With `CN1CCN(C(C)(C)C=C(C#N)C(=O)N2CCC[C@@H](n3nc(-c4ccc(C(=O)Nc5ccccn5)cc4)c4c(N)nccc43)C2)CC1` [Compound 45, (R)-4-(4-amino-1-(1-(2-cyano-4-methyl-4-(4-methylpiperazin-1-yl)pent-2-enoyl)piperidin-3-yl)-1H-pyrazolo[4,3-c]pyridin-3-yl)-N-(pyridin-2-yl)benzamide], the IC50 was 4.6 nM.

In the case of `CC(C)(C=C(C#N)C(=O)N1CCC[C@@H](n2nc(-c3ccc(Oc4c(F)cccc4F)cc3)c3c(N)nccc32)C1)N1CCN(C2COC2)CC1` [Compound 28, (R)-2-(3-(4-amino-3-(4-(2,6-difluorophenoxy)phenyl)-1H-pyrazolo[4,3-c]pyridin-1-yl)piperidine-1-carbonyl)-4-methyl-4-(4-(oxetan-3-yl)piperazin-1-yl)pent-2-enenitrile], the IC50 worked out at 0.9 nM. On to `CN1CCN(C(=O)C(C#N)=CC(C)(C)C)C[C@@H]1c1nc(-c2ccc(Oc3ccccc3)cc2)c2c(N)nccn12` [Compound 66, (R)-2-(3-(8-amino-1-(4-phenoxyphenyl)imidazo[1,5-a]pyrazin-3-yl)-4-methylpiperazine-1-carbonyl)-4,4-dimethylpent-2-enenitrile], for which the half-maximal inhibitory concentration (IC50) amounted to 0.3 nM.

With `CC(C)(C=C(C#N)C(=O)N1CCC[C@@H](c2nc(-c3ccc(Oc4ccccc4)cc3)c3c(N)nccn23)C1)N1CCN2C(=O)CC[C@H]2C1` [Compound 64, 2-((R)-3-(8-amino-1-(4-phenoxyphenyl)imidazo[1,5-a]pyrazin-3-yl)piperidine-1-carbonyl)-4-methyl-4-((S)-6-oxohexahydropyrrolo[1,2-a]pyrazin-2(1H)-yl)pent-2-enenitrile], the IC50 is 0.8 nM. As to `CC(C)(C=C(C#N)C(=O)N1CCC[C@@H](n2nc(-c3ccc(Oc4ccccc4)cc3)c3c(N)nccc32)C1)N1CCN(C2COC2)CC1` [Compound 34, (R)-2-(3-(4-amino-3-(4-phenoxyphenyl)-1H-pyrazolo[4,3-c]pyridin-1-yl)piperidine-1-carbonyl)-4-methyl-4-(4-(oxetan-3-yl)piperazin-1-yl)pent-2-enenitrile], the half-inhibitory concentration (IC50) is 1.9 nM. To `CN(C1COC1)C(C)(C)C=C(C#N)C(=O)N1CCC[C@@H](n2nc(-c3ccc(C(=O)Nc4ccccn4)cc3)c3c(N)nccc32)C1` [Compound 46, (R)-4-(4-amino-1-(1-(2-cyano-4-methyl-4-(methyl(oxetan-3-yl)amino)pent-2-enoyl)piperidin-3-yl)-1H-pyrazolo[4,3-c]pyridin-3-yl)-N-(pyridin-2-yl)benzamide] belongs 2.1 nM. Consider `COC(=O)N1CCN(C(C)(C)C=C(C#N)C(=O)N2CCC[C@@H](c3nc(-c4ccc(Oc5ccccc5)cc4)c4c(N)nccn34)C2)CC1` [Compound 56, (R)-methyl 4-(5-(3-(8-amino-1-(4-phenoxyphenyl)imidazo[1,5-a]pyrazin-3-yl)piperidin-1-yl)-4-cyano-2-methyl-5-oxopent-3-en-2-yl)piperazine-1-carboxylate], for which the IC50 was found to be 1.2 nM. As to `CCN1CCN(C(C)(C)C=C(C#N)C(=O)N2CCC[C@@H](n3nc(-c4ccc(Oc5ccccc5)cc4)c4c(N)nccc43)C2)CC1=O` [Compound 41, (R)-2-(3-(4-amino-3-(4-phenoxyphenyl)-1H-pyrazolo[4,3-c]pyridin-1-yl)piperidine-1-carbonyl)-4-(4-ethyl-3-oxopiperazin-1-yl)-4-methylpent-2-enenitrile], the IC50 was determined as 2.4 nM. For `CC(C)(C=C(C#N)C(=O)N1CCC[C@H]1Cn1nc(-c2ccc(C(=O)Nc3ccccn3)cc2)c2c(N)nccc21)N1CCOCC1` [Compound 21, (S)-4-(4-amino-1-((1-(2-cyano-4-methyl-4-morpholinopent-2-enoyl)pyrrolidin-2-yl)methyl)-1H-pyrazolo[4,3-c]pyridin-3-yl)-N-(pyridin-2-yl)benzamide], the 50% inhibitory concentration (IC50) was found to be 18.6 nM.

Regarding `CC1(C=C(C#N)C(=O)N2CCC[C@@H](n3nc(-c4ccc(Oc5ccccc5)cc4F)c4c(N)nccc43)C2)CCN(C2COC2)CC1` [Compound 49, (R)-2-(3-(4-amino-3-(2-fluoro-4-phenoxyphenyl)-1H-pyrazolo[4,3-c]pyridin-1-yl)piperidine-1-carbonyl)-3-(4-methyl-1-(oxetan-3-yl)piperidin-4-yl)acrylonitrile], the half-maximal inhibitory concentration (IC50) was 1.8 nM. For `CC1(C=C(C#N)C(=O)N2CCC[C@@H](c3nc(-c4ccc(Oc5ccccc5)cc4F)c4c(N)nccn34)C2)CCOCC1` [Compound 53, (R)-2-(3-(8-amino-1-(2-fluoro-4-phenoxyphenyl)imidazo[1,5-a]pyrazin-3-yl)piperidine-1-carbonyl)-3-(4-methyltetrahydro-2H-pyran-4-yl)acrylonitrile], the 50% inhibitory concentration (IC50) is 2 nM. `CC(C)(C=C(C#N)C(=O)N1CCC[C@@H](n2nc(-c3ccc(Oc4ccccc4)cc3)c3c(N)nccc32)C1)N1CCN(C2(C)COC2)CC1` [Compound 39, (R)-2-(3-(4-amino-3-(4-phenoxyphenyl)-1H-pyrazolo[4,3-c]pyridin-1-yl)piperidine-1-carbonyl)-4-methyl-4-(4-(3-methyloxetan-3-yl)piperazin-1-yl)pent-2-enenitrile]: the IC50 stood at 1.3 nM. `CC(C)(C=C(C#N)C(=O)N1CCC[C@H]1Cn1nc(-c2ccc(C(=O)Nc3ccccn3)cc2)c2c(N)nccc21)N1CCN(C2COC2)CC1` [Compound 15, (S)-4-(4-amino-1-((1-(2-cyano-4-methyl-4-(4-(oxetan-3-yl)piperazin-1-yl)pent-2-enoyl)pyrrolidin-2-yl)methyl)-1H-pyrazolo[4,3-c]pyridin-3-yl)-N-(pyridin-2-yl)benzamide]: the IC50 is 22.4 nM. Regarding `CCN1CCN(C(C)(C)C=C(C#N)C(=O)N2CCC[C@@H](n3nc(-c4ccc(Oc5ccccc5)cc4F)c4c(N)nccc43)C2)CC1=O` [Compound 40, (R)-2-(3-(4-amino-3-(2-fluoro-4-phenoxyphenyl)-1H-pyrazolo[4,3-c]pyridin-1-yl)piperidine-1-carbonyl)-4-methyl-4-(4-ethyl-3-oxopiperazin-1-yl)pent-2-enenitrile], the IC50 was found to be 2.4 nM. Turning to `CC(C)(C=C(C#N)C(=O)N1CCC[C@@H](n2nc(-c3ccc(Oc4cccc(F)c4F)cc3)c3c(N)nccc32)C1)N1CCN(C2COC2)CC1` [Compound 29, (R)-2-(3-(4-amino-3-(4-(2,3-difluorophenoxy)phenyl)-1H-pyrazolo[4,3-c]pyridin-1-yl)piperidine-1-carbonyl)-4-methyl-4-(4-(oxetan-3-yl)piperazin-1-yl)pent-2-enenitrile], the IC50 is 0.8 nM. As to `CC(=O)N1CCN(C(C)(C)C=C(C#N)C(=O)N2CCC[C@@H](c3nc(-c4ccc(Oc5ccccc5)cc4)c4c(N)nccn34)C2)CC1` [Compound 57, (R)-4-(4-acetylpiperazin-1-yl)-2-(3-(8-amino-1-(4-phenoxyphenyl)imidazo[1,5-a]pyrazin-3-yl)piperidine-1-carbonyl)-4-methylpent-2-enenitrile], the IC50 was 1.1 nM. `CC(C)(C=C(C#N)C(=O)N1CCC[C@@H](c2nc(-c3ccc(Oc4ccccc4)cc3)c3c(N)nccn23)C1)N1CCN(C2COC2)CC1` [Compound 35, (R)-2-(3-(8-amino-1-(4-phenoxyphenyl)imidazo[1,5-a]pyrazin-3-yl)piperidine-1-carbonyl)-4-methyl-4-(4-(oxetan-3-yl)piperazin-1-yl)pent-2-enenitrile]: the 50% inhibitory concentration (IC50) turned out to be 2.1 nM.

On to `CC(C)(C=C(C#N)C(=O)N1CCC[C@@H](n2nc(-c3ccc(C(=O)Nc4cc(F)ccn4)cc3)c3c(N)nccc32)C1)N1CCN(C2COC2)CC1` [Compound 50, (R)-4-(4-amino-1-(1-(2-cyano-4-methyl-4-(4-(oxetan-3-yl)piperazin-1-yl)pent-2-enoyl)piperidin-3-yl)-1H-pyrazolo[4,3-c]pyridin-3-yl)-N-(4-fluoropyridin-2-yl)benzamide], for which the concentration for half-maximal inhibition (IC50) is 4.2 nM. As to `CC(C)(C=C(C#N)C(=O)N1CCC[C@@H](c2nc(-c3ccc(Oc4ccccc4)cc3F)c3c(N)nccn23)C1)N1CCN2C(=O)CC[C@H]2C1` [Compound 62, 2-((R)-3-(8-amino-1-(2-fluoro-4-phenoxyphenyl)imidazo[1,5-a]pyrazin-3-yl)piperidine-1-carbonyl)-4-methyl-4-((S)-6-oxohexahydropyrrolo[1,2-a]pyrazin-2(1H)-yl)pent-2-enenitrile], the 50% inhibitory concentration (IC50) was 2.2 nM.
